According to patent US9114149B2, “[CU(thp)4]n[X]-n compounds for the treatment of a broad range of human solid tumors, including refractory tumors” (Universita Degli Studi Di Padova, priority 2011, dated 2015):
Several values for one entry are separate records, joined by “and”; a condition that tells them apart may be missing. Equal entries are not always repeated.

Legend:
[1] = tested on: G361; experiment: MTT cytotoxicity, G361 (skin); assay type: cell-based, human; details: MTT test, 72 hrs
Text: (§1) The in vitro antitumor activity of CP had been deeply evaluated in several human cancer cell lines by in vitro cytotoxicity assays. CP cytotoxicity has been detected in a large panel of human cell lines derived from a wide variety of solid tumors, including refractory tumors. In Table 1, the cytotoxicity parameters IC50 (that is the median growth inhibitory concentrations calculated from dose-survival curves via MTT test) are tabulated.
(§2) Cell lines representative of lung (H157, U1810, U1285, Calu-1), pancreas (MIA PaCa-2, BxPC-3, AsPC-1, Capan-1), liver (Huh-7, Hep 3B, SK-Hep-1), oesophagus (OE33, OE21), oesophagus/gastric cardia (OE19), stomach (BGC-823, AGS), colon (HCT-116, T84, COLO 205), breast (MDA-MB-231, SK-BR-3), cervix (CaSki, C-33 A) ovarian (A2780, SK-OV-3, IGROV1), prostate (LnCaP, PC-3) cancers along with melanoma (MEWO, G361, C-32), neuroblastoma (SH-SY5Y, SK-N-AS, IMR-32) and osteosarcoma (U-2 OS, MG-63) have been treated with increasing concentration of CP for 72 hrs.

[2] = tested on: MIA PaCa-2; experiment: MTT cytotoxicity, MIA PaCa-2 (pancreas); assay type: cell-based, human; details: MTT test, 72 hrs
Text: as §1, §2

[3] = tested on: OE19; experiment: MTT cytotoxicity, OE19 (oesophagus/gastric cardia); assay type: cell-based, human; details: MTT test, 72 hrs
Text: as §1, §2

[4] = tested on: human lung (MRC-5) fibroblasts; experiment: Cytotoxicity towards human non-tumor cells, MRC-5; assay type: cell-based; details: MRC-5 human lung fibroblasts (non-tumor); MTT test, 72 hrs
[5] = tested on: Lewis lung carcinoma (LLC); experiment: Advanced-stage treatment (1) of LLC-bearing mice; assay type: in vivo, C57BL mice; details: for Average tumor weight (mean ± S.D.) / Inhibition of tumor growth: advanced-stage (1); for Average tumor weight (mean ± S.D.): day 15; for Inhibition of tumor growth: day 15, referred to control; for adverse effects / body weight changes during therapy: advanced-stage treatments (1) and (2), FIGS. 2 and 3
Method: Body weight was measured at day 1 and every two days from day 7 and was taken as a parameter of systemic toxicity. The X axis indicates the days after transplantation whereas the Y axis indicates the percentage of body weight changes. […] The error bars indicate the SD.
The in vivo antitumor activity of CP in LLC tumor model has been further investigated by means of other protocols, such as advanced-stage treatment (1), and advanced-stage treatment (2). For upstaged or advanced stage disease, LLC tumors were allowed to establish and grow to visible (advanced-stage treatment 1) and palpable (advanced-stage treatment 2) size before the start of chemotherapy. The results shown in Table 8 and 9, attested that CP was efficacious even at the lowest dose schedules.

[6] = tested on: OE21; experiment: MTT cytotoxicity, OE21 (oesophagus); assay type: cell-based, human; details: MTT test, 72 hrs
Text: as §1, §2

[7] = tested on: human osteosarcoma cells sensitive (U-2 OS); experiment: Cross resistance MTT test, U-2 OS (CDDP sensitive); assay type: cell-based; details: 72 h, probit analysis
[8] = tested on: MEWO; experiment: MTT cytotoxicity, MEWO (skin); assay type: cell-based, human; details: MTT test, 72 hrs
Text: as §1, §2

[9] = tested on: SH-SY5Y; experiment: MTT cytotoxicity, SH-SY5Y (brain); assay type: cell-based, human; details: MTT test, 72 hrs
[10] = tested on: human ovarian adenocarcinoma cells resistant (A2780cisR) to CDDP; experiment: Cross resistance MTT test, A2780cisR (CDDP resistant); assay type: cell-based; details: for IC50: A2780cisR (CDDP resistant), MTT test, 72 h, probit analysis; for R.F. (Resistant factor): IC50 resistant/parent line: A2780cisR / A2780
[11] = tested on: U1810; experiment: MTT cytotoxicity, U1810 (lung); assay type: cell-based, human; details: MTT test, 72 hrs
Text: as §1, §2

[12] = tested on: human osteosarcoma cells resistant (U-2 OS/Pt) to CDDP; experiment: Cross resistance MTT test, U-2 OS Pt (CDDP resistant); assay type: cell-based; details: for IC50: U-2 OS Pt (CDDP resistant), MTT test, 72 h, probit analysis
[13] = tested on: U-2 OS; experiment: MTT cytotoxicity, U-2 OS (bone); assay type: cell-based, human; details: MTT test, 72 hrs
Text: as §1, §2

[14] = tested on: SK-BR-3; experiment: MTT cytotoxicity, SK-BR-3 (breast); assay type: cell-based, human; details: MTT test, 72 hrs
Text: as §1, §2

[15] = tested on: SK-OV-3; experiment: MTT cytotoxicity, SK-OV-3 (ovary); assay type: cell-based, human; details: MTT test, 72 hrs
Text: as §1, §2

[16] = tested on: Capan-1; experiment: MTT cytotoxicity, Capan-1 (pancreas); assay type: cell-based, human; details: MTT test, 72 hrs
Text: as §1, §2

[17] = tested on: COLO 205; experiment: MTT cytotoxicity, COLO 205 (colon); assay type: cell-based, human; details: MTT test, 72 hrs
Text: as §1, §2

[18] = tested on: Lewis lung carcinoma (LLC); experiment: Early-stage treatment of LLC-bearing mice; assay type: in vivo, C57BL mice; details: for Average tumor weight (mean ± S.D.) / Inhibition of tumor growth: early-stage; for Average tumor weight (mean ± S.D.): day 15; for Inhibition of tumor growth: day 15, referred to control
Method: Body weight was measured every two days and was taken as a parameter of systemic toxicity. The X axis indicates the days after transplantation whereas the Y axis indicates the percentage of body weight changes. […] The error bars indicate the SD.
The antitumor efficacy of CP was evaluated in a model of solid tumor, the syngeneic murine Lewis Lung Carcinoma (also indicated as LLC). […] Body weight of tumor-bearing mice has been measured every two days simultaneously with antitumor analyses and was taken as a parameter of systemic toxicity.
LLC was implanted intramuscularly (i.m., 2×10^6 cells inoculum) into the right hind leg of 8-week old inbred C57BL mice (24±3 g body weight) and, after 24 h from tumor implantation, mice were randomly divided into five groups (8 animals per group, 10 controls). CP was dosed at 25, 35 and 50 mk/kg i.p. on days 3, 5, 7, 9, 11 and 13 after tumor implantation. […] At day 15, animals were sacrificed, and the inhibition of tumor growth was evaluated.

[19] = tested on: LNCap; experiment: MTT cytotoxicity, LNCap (prostate); assay type: cell-based, human; details: MTT test, 72 hrs
Text: as §1, §2

[20] = tested on: Calu-1; experiment: MTT cytotoxicity, Calu-1 (lung); assay type: cell-based, human; details: MTT test, 72 hrs
Text: as §1, §2

[21] = tested on: SK-Hep-1; experiment: MTT cytotoxicity, SK-Hep-1 (liver); assay type: cell-based, human; details: MTT test, 72 hrs
Text: as §1, §2

[22] = tested on: A2780; experiment: MTT cytotoxicity, A2780 (ovary); assay type: cell-based, human; details: MTT test, 72 hrs
Text: as §1, §2

[23] = tested on: Hep 3B; experiment: MTT cytotoxicity, Hep 3B (liver); assay type: cell-based, human; details: MTT test, 72 hrs
Text: as §1, §2

[24] = tested on: H157; experiment: MTT cytotoxicity, H157 (lung); assay type: cell-based, human; details: MTT test, 72 hrs
Text: as §1, §2

[25] = tested on: PC-3; experiment: MTT cytotoxicity, PC-3 (prostate); assay type: cell-based, human; details: MTT test, 72 hrs
Text: as §1, §2

[26] = tested on: AGS; experiment: MTT cytotoxicity, AGS (stomach); assay type: cell-based, human; details: MTT test, 72 hrs
Text: as §1, §2

[27] = tested on: C-32; experiment: MTT cytotoxicity, C-32 (skin); assay type: cell-based, human; details: MTT test, 72 hrs
Text: as §1, §2

[28] = tested on: HCT-116; experiment: MTT cytotoxicity, HCT-116 (colon); assay type: cell-based, human; details: MTT test, 72 hrs
Text: as §1, §2

[29] = 35 mg/kg ip days 3, 5, 7, 9, 11, 13
[30] = 50 mg/kg ip days 3, 5, 7, 9, 11, 13
[31] = 1.5 mg/kg i.p. daily from day 7
[32] = 1.5 mg/kg ip days 3, 5, 7, 9, 11, 13

## F[P-](F)(F)(F)(F)F.OC[P+](CO)(CO)[Cu-3]([P+](CO)(CO)CO)([P+](CO)(CO)CO)[P+](CO)(CO)CO [CP, [Cu(thp)4][PF6]]
[1]
  IC50: 980 ± 120 nM
[2]
  IC50: 2450 ± 970 nM
[3]
  IC50: 1660 ± 940 nM
[4]
  IC50: 33000 ± 1760 nM
[5]; 30 mg/kg i.p. daily from day 7
  Average tumor weight (mean ± S.D.): 0.088 ± 0.03 g
  Inhibition of tumor growth: 82.37%
[5]; 50 mg/kg i.p. daily from day 7
  Average tumor weight (mean ± S.D.): 0.071 ± 0.02 g
  Inhibition of tumor growth: 85.85%
[5]
  adverse effects / body weight changes during therapy: did not induce any adverse effects
[6]
  IC50: 1190 ± 720 nM
[7]
  IC50: 3100 ± 1100 nM
[8]
  IC50: 1130 ± 740 nM
[9]
  IC50: 660 ± 120 nM
[10]
  IC50: 2100 ± 1200 nM
  R.F. (Resistant factor): 1.2
[11]
  IC50: 760 ± 1020 nM
[12]
  IC50: 4300 ± 1100 nM
[13]
  IC50: 1340 ± 920 nM
[14]
  IC50: 1890 ± 990 nM
[15]
  IC50: 880 ± 430 nM
[16]
  IC50: 2430 ± 840 nM
[17]
  IC50: 650 ± 30 nM
[18]; early-stage LLC mice, even at the highest doses (FIG. 1)
  body weight loss compared with the non-treated group: no significant body weight loss
[18]; 25 mg/kg ip days 3, 5, 7, 9, 11, 13
  Average tumor weight (mean ± S.D.): 0.473 ± 0.12 g
[18]; 25 mg/kg ip days 3, 5, 7, 9, 11, 13, 25 mg/kg
  Inhibition of tumor growth: 26% and 25.86%
[18]; [29]
  Average tumor weight (mean ± S.D.): 0.273 ± 0.04 g
  Inhibition of tumor growth: 57.21%
[18]; [30]
  Average tumor weight (mean ± S.D.): 0.113 ± 0.04 g
  Inhibition of tumor growth: 82.28%
[19]
  IC50: 650 ± 870 nM
[20]
  IC50: 910 ± 450 nM
[21]
  IC50: 860 ± 750 nM
[22]
  IC50: 990 ± 420 nM
[23]
  IC50: 670 ± 470 nM
[24]
  IC50: 1510 ± 660 nM
[25]
  IC50: 980 ± 970 nM
[26]
  IC50: 1140 ± 780 nM
[27]
  IC50: 560 ± 430 nM
[28]
  IC50: 460 ± 70 nM

## N.N.[Cl][Pt][Cl] [CDDP, cis-diamminodichloro platinum(II)]
[1]
  IC50: 1320 ± 1010 nM
[2]
  IC50: 25900 ± 2750 nM
[3]
  IC50: 7450 ± 1370 nM
[4]
  IC50: 19200 ± 1350 nM
[5]; [31]
  Average tumor weight (mean ± S.D.): 0.061 ± 0.03 g
  Inhibition of tumor growth: 87.84%
[5]
  adverse effects / body weight changes during therapy: substantial weight loss
[6]
  IC50: 3760 ± 1080 nM
[7]
  IC50: 5900 ± 1400 nM
[8]
  IC50: 6760 ± 1470 nM
[9]
  IC50: 5160 ± 1230 nM
[10]
  IC50: 13100 ± 2300 nM
  R.F. (Resistant factor): 5.3
[11]
  IC50: 3240 ± 1920 nM
[12]; IC50 resistant/parent line: U-2 OS Pt / U-2 OS
  R.F. (Resistant factor): 2.5
[12]
  IC50: 14600 ± 1300 nM
[13]
  IC50: 5150 ± 1940 nM
[14]
  IC50: 5120 ± 1510 nM
[15]
  IC50: 3040 ± 950 nM
[16]
  IC50: 9810 ± 1380 nM
[17]
  IC50: 33100 ± 2680 nM
[18]; early-stage LLC mice, 1.5 mg/kg, after the sixth administration (FIG. 1)
  body weight loss: about 30%
[18]; [32]
  Average tumor weight (mean ± S.D.): 0.168 ± 0.10 g
  Inhibition of tumor growth: 73.66%
[19]
  IC50: 1080 ± 1010 nM
[20]
  IC50: 9650 ± 2130 nM
[21]
  IC50: 27100 ± 2940 nM
[22]
  IC50: 1250 ± 1010 nM
[23]
  IC50: 6150 ± 1480 nM
[24]
  IC50: 5990 ± 2710 nM
[25]
  IC50: 1570 ± 1130 nM
[26]
  IC50: 6330 ± 1790 nM
[27]
  IC50: 1060 ± 980 nM
[28]
  IC50: 8260 ± 1110 nM
